Counter-ions that a name gives are not always drawn.
Legend:
[1] = system: male CD1 mice; assay: acetic acid-induced writhing assay after sc administration; assay type: in vivo, mouse; settings: for ED50: Mus musculus, 0.5 h, read-out: ED50 (95% CI), mice, sc, inhibition of writhing 30 min after drug administration
Experimental: Solutions of test compounds were prepared in sterile physiological 0.9% saline and further diluted to working doses in saline solution. Test compounds or saline (control) were administered by sc route in a volume of 10 μL/1 g of body weight. All doses are expressed in terms of salts. Separate groups of mice received the respective dose of compound, and individual mice were only used once for behavioral testing.
Writhing was induced in male CD1 mice by ip injection of a 0.6% acetic acid aqueous solution as described previously.[48],[62] Groups of mice were administered sc different doses of test compound or saline (control), and 5 min prior to testing (25 min after drug or saline), each animal received an ip injection of acetic acid solution. Each mouse was placed in individual transparent Plexiglas chambers, and the number of writhes was counted during a 10 min observation period. […] For the antagonism study, naloxone methiodide was sc co-administered with the respective opioid agonist, and writhing was assessed as described above.
(§1) Data were analyzed and graphically processed using the GraphPad Prism 5.0 Software (GraphPad Prism Software Inc., San Diego, CA). For in vitro assays, inhibition constant (Ki in nM), potency (EC50 in nM), and efficacy (% stimulation) values were determined from concentration–response curves by nonlinear regression analysis. The Ki values were determined by the method of Cheng and Prusoff.[66] In the [^35S]GTPγS binding assays, efficacy was determined relative to the reference full opioid agonists, DAMGO (MOR), DPDPE (DOR), and U69,593 (KOR). In vitro data are presented as mean ± SEM of three to four independent experiments each performed in duplicate. […] Each experimental group included six to seven mice. Data were statistically evaluated using one-way ANOVA with Tukey’s post hoc test for multiple comparisons with significance set at P < 0.05.

[2] = target: T1, KOR (Homo sapiens, UniProt P41145); assay: [35S]GTPγS binding assay, CHO-hKOR membranes; assay type: biochemical; settings: for EC50: [35S]GTPγS, CHO human KOR membranes, read-out: KOR EC50; for Emax: relative to reference full agonist U69,593, read-out: KOR % stim.
T1 construct: host or cells: CHO (CHO-hKOR)
Experimental: (§2) Efficacies are presented as percentage stimulation relative to the standard full agonists, [D-Ala^2,N-Me-Phe4,Gly-ol^5]enkephalin (DAMGO for MOR),[53] [D-Pen^2,D-Pen^5]enkephalin (DPDPE for DOR)[54] and N-methyl-2-phenyl-N-[(5R,7S,8S)-7-(pyrrolidin-1-yl)-1-oxaspiro[4.5]dec-8-yl]acetamide (U69,593 for KOR).[55]
(§3) Membranes from CHO cells expressing human opioid receptors were prepared in 50 mM Tris-HCl buffer (pH 7.7) according to a previously described procedure.[64] Cells expressing human opioid receptors grown at confluence were removed from the culture plates by scraping, homogenized in 50 mM Tris buffer (pH 7.7), using a Polytron homogenizer, then centrifuged once and washed by an additional centrifugation at 27 000g for 15 min, at 4 °C. The final pellet was resuspended in Tris buffer and stored at −80 °C until use. Protein content of brain and cell membrane preparation homogenates was determined by the method of Bradford using bovine serum albumin as the standard.[65]
(§4) Binding of [^35S]GTPγS to membranes from CHO cells stably expressing the human opioid receptors was conducted according to the published procedures.[49],[64] Cell membranes (5–10 μg) in 20 mM HEPES, 10 mM MgCl2, and 100 mM NaCl (pH 7.4) were incubated with 0.05 nM [^35S]GTPγS, 10 μM GDP, and various concentrations of test compound in a final volume of 1 mL, for 60 min at 25 °C. Nonspecific binding was determined using 10 μM GTPγS, and the basal binding was determined in the absence of test ligand. Samples are filtered over glass Whatman glass GF/B fiber filters and counted as described for binding assays. All experiments were performed in duplicate and repeated at least three times.
as §1

[3] = target: T2, MOR (Homo sapiens, UniProt P35372); assay: [35S]GTPγS binding assay, CHO-hMOR membranes; assay type: biochemical; settings: for EC50: [35S]GTPγS, CHO human MOR membranes, read-out: MOR EC50; for Emax: relative to reference full agonist DAMGO, read-out: MOR % stim.
T2 construct: host or cells: CHO (CHO-hMOR)
Experimental: as §2, §3, §4, §1

[4] = target: T3, DOR (Homo sapiens, UniProt P41143); assay: [35S]GTPγS binding assay, CHO-hDOR membranes; assay type: biochemical; settings: for EC50: [35S]GTPγS, CHO human DOR membranes; for Emax: relative to reference full agonist DPDPE, read-out: DOR % stim.
T3 construct: host or cells: CHO (CHO-hDOR)
Experimental: as §2, §3, §4, §1

T2 sequence (P35372 whole entry): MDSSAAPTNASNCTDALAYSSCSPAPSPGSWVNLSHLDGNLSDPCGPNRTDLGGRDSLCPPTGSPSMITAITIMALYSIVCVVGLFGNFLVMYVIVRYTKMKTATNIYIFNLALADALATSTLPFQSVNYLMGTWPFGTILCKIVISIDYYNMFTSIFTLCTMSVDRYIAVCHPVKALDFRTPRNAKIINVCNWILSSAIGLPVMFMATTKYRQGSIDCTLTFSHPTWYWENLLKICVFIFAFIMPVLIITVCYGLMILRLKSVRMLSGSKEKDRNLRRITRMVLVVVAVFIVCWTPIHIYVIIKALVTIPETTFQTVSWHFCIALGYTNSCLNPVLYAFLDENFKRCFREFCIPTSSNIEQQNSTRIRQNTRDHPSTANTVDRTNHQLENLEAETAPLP
T3 sequence (P41143 whole entry): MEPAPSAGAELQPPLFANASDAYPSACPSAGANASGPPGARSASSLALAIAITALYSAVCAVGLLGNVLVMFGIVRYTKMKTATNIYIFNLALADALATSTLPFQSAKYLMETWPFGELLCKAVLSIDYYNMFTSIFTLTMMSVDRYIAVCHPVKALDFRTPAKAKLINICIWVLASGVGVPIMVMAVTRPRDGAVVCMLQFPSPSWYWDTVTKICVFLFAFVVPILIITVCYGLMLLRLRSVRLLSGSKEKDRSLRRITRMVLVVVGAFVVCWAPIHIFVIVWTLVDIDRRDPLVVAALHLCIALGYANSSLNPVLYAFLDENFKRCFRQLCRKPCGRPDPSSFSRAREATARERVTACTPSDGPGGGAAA
T1 sequence (P41145 whole entry): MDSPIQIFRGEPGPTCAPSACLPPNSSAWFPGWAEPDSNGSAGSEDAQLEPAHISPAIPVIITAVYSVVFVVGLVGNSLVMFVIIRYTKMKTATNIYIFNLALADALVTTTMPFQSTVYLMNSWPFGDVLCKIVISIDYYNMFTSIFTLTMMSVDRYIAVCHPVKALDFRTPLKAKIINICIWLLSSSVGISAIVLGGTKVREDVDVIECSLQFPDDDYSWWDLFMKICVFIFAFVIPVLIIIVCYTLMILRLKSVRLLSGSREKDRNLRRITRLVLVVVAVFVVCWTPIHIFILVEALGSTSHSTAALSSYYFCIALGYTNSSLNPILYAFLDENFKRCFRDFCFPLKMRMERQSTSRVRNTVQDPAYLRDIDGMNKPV

Row | Compound | ED50 (95% CI) ([1]; mice, inhibition of writhing 30 min after drug administration) | EC50 [2] [nM] | Emax [2] [%] | EC50 [3] [nM] | Emax [3] [%] | EC50 [4] [nM] | Emax [4] [%] | ED50 [1] [mg/kg]
1 | CN1CC[C@]23c4c5ccc(O)c4O[C@H]2[C@@H](O)C=C[C@H]3[C@H]1C5 [morphine, reference compound] | 437 (249–768) μg/kg |  |  |  |  |  |  | 
2 | CO[C@@]12CC[C@H](N[C@@H](CCC(N)=O)C(=O)O)[C@@H]3Oc4c(O)ccc5c4[C@@]31CCN(C)[C@@H]2C5 [Compound 12a, (2S)-4-Carbamoyl-2-[(4,5α-epoxy-3-hydroxy-14β-methoxy-17-methylmorphinan-6α-yl)amino]butanoic Acid Dihydrochloride] |  | 185 ± 30 | 70 ± 3 | 2.27 ± 0.11 | 90 ± 8 | 7.8 ± 3.61 | 104 ± 10 | 
3 | CO[C@@]12CC[C@H](N[C@@H](CO)C(=O)O)[C@@H]3Oc4c(O)ccc5c4[C@@]31CCN(C)[C@@H]2C5 [Compound 6a, (2S)-2-[(4,5α-Epoxy-3-hydroxy-14β-methoxy-17-methylmorphinan-6α-yl)amino]-3-hydroxypropionic Acid Dihydrochloride] |  | 1210 ± 200 | 44 ± 5.2 | 1.6 ± 0.59 | 87 ± 5 | 13.9 ± 1.5 | 101 ± 2 | 0.0321
4 | CN1CC[C@]23c4c5ccc(O)c4O[C@H]2[C@H](NCC(=O)O)CC[C@@]3(OCCCc2ccccc2)[C@H]1C5 [Compound 5b] |  |  |  |  |  |  |  | 0.0416
5 | CN1CC[C@]23c4c5ccc(O)c4O[C@H]2[C@@H](NCC(=O)O)CC[C@@]3(OCCCc2ccccc2)[C@H]1C5 [Compound 5a] |  |  |  |  |  |  |  | 0.0361
6 | CO[C@@]12CC[C@@H](N[C@@H](CC(N)=O)C(=O)O)[C@@H]3Oc4c(O)ccc5c4[C@@]31CCN(C)[C@@H]2C5 [Compound 11b, (2S)-3-Carbamoyl-2-[(4,5α-epoxy-3-hydroxy-14β-methoxy-17-methylmorphinan-6β-yl)amino]propionic Acid Dihydrochloride] |  | 923 ± 11 | 71 ± 9 | 2.04 ± 0.44 | 96 ± 14 | 3.18 ± 0.93 | 88 ± 5 | 

From publication PMC6348443 (Journal of Medicinal Chemistry, 2018)
